Series [1] concerns SMN2 minigene mRNA (SMN2-A minigene construct). The series is described as follows: SMN2 minigene mRNA splicing RT-qPCR assay in cultured cells. It counts as cell-based, human. The following applies: Homo sapiens, HEK293-H; HEK293H cells stably transfected with SMN2-A minigene, 24 hours, 7-point concentration data; concentration giving 1.5-fold SMN2 full length mRNA relative to vehicle-treated cells; read-out: EC1.5x for production of full length SMN2 mRNA. In a few lines:
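Full-length SMN2 minigene mRNA, measured by exon 7/luciferase-specific RT-qPCR that excludes endogenous SMN1/SMN2, was normalized to GAPDH and expressed relative to vehicle-treated cells via modified ΔΔCt. Stably transfected HEK293H cells received compound (7-point, 3.16-fold series, duplicates) for 24 h at 37 °C.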
For orientation: Quantitative PCR measures a nucleic acid by following its amplification.

A further series deals with Smn protein. In words: Smn protein assay (HTRF) in cultured cells (SMA patient fibroblasts GM03813). It counts as cell-based, human. To be noted: 48 hours; for maximum fold (Fold) increase of Smn protein: SMA patient fibroblast cells, 7-point concentration curve, relative to vehicle control; for EC1.5x for Smn protein expression: SMA patient fibroblast cells (GM03813), HTRF, 7-point concentration data, concentration producing 1.5 times Smn protein vs DMSO vehicle control. Summed up: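 SMA patient fibroblasts (GM03813) were treated 48 h at 37° C with a 7-point, 3.16-fold compound series in triplicate, then lysed in RIPA. Smn was read by HTRF (anti-SMN d2/kryptate, 665/620 nm ratio). ΔF versus blank was divided by vehicle ΔF to give fold Smn increase.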

Consider `Cc1ccn2cc(-c3cc4ccc(N5C[C@H](C)N(C)C[C@H]5C)nc4oc3=O)nc2c1` [Cpd 96, 3-(7-methylimidazo[1,2-a]pyridin-2-yl)-7-[(2R,5S)-2,4,5-trimethylpiperazin-1-yl]-2H-pyrano[2,3-b]pyridin-2-one], for which the melting point lay within 114 to 117 °C. Besides, in series [1], the EC (1.5-fold) lay within 0.3 to 1 µM. In addition, in the series with Smn protein, the “maximum fold (Fold) increase of Smn protein” value (“maximum fold (Fold) increase” for short) was “*** (a fold increase between >1.35 and ≦1.5 is indicated by three stars (***))”.
`C[C@@H]1CN(c2ccc3cc(-c4cn5ccccc5n4)c(=O)oc3n2)C[C@H](C)N1` [Cpd 60, 7-[(3R,5S)-3,5-dimethylpiperazin-1-yl]-3-(imidazo[1,2-a]pyridin-2-yl)-2H-pyrano[2,3-b]pyridin-2-one]: the melting point is 283 to 285 °C. Further, in series [1], the EC (1.5-fold) was not above 0.1 µM. In the series on Smn protein, the “EC1.5x for Smn protein expression” value is “** (an EC1.5× between >1 and ≦3 μM is indicated by two stars (**))”; the “maximum fold (Fold) increase” value is “*** (a fold increase between >1.35 and ≦1.5 is indicated by three stars (***))”.
Take `CC(C)N1CCN(c2ccc3cc(-c4nc5c(Cl)cccc5s4)c(=O)oc3n2)CC1` [Cpd 23, 3-(4-chloro-1,3-benzothiazol-2-yl)-7-[4-(propan-2-yl)piperazin-1-yl]-2H-pyrano[2,3-b]pyridin-2-one]: the melting point lay within 230 to 234 °C. For the same compound, the EC (1.5-fold) in series [1] was 0.3 to 1 µM. For the same compound, the “maximum fold (Fold) increase” value with Smn protein was “** (a fold increase between >1.2 and ≦1.35 is indicated by two stars (**))”.
Compound `CCCN1CCN(c2ccc3cc(-c4nc5ccccc5s4)c(=O)oc3n2)CC1` [Cpd 18, 3-(1,3-benzothiazol-2-yl)-7-(4-propylpiperazin-1-yl)-2H-pyrano[2,3-b]pyridin-2-one] came in with a melting point of 247 to 250 °C. In addition, in series [1], the EC (1.5-fold) was 1 to 3 µM. Also, in the series on Smn protein, the “maximum fold (Fold) increase” value was “* (A maximum fold increase ≦1.2 is indicated by one star (*))”.
In the case of `Cc1ccn2cc(-c3cc4ccc(N5CCCN(C)CC5)nc4oc3=O)nc2c1` [Cpd 115, 7-(4-methyl-1,4-diazepan-1-yl)-3-(7-methylimidazo[1,2-a]pyridin-2-yl)-2H-pyrano[2,3-b]pyridin-2-one], the melting point lay within 241 to 243 °C. Further, in series [1], the EC (1.5-fold) is not above 0.1 µM. Also, in the series with Smn protein, the “maximum fold (Fold) increase” value was “*** (a fold increase between >1.35 and ≦1.5 is indicated by three stars (***))”.
In turn, `Cc1ccc2nc(-c3cc4ccc(N5CCN(C)[C@@H](C)C5)nc4oc3=O)cn2c1` [Cpd 74, 7-[(3S)-3,4-dimethylpiperazin-1-yl]-3-(6-methylimidazo[1,2-a]pyridin-2-yl)-2H-pyrano[2,3-b]pyridin-2-one] gave a melting point of 248 to 252 °C. For the same compound, in series [1], the EC (1.5-fold) was not above 0.1 µM. Also, in the series with Smn protein, the “EC1.5x for Smn protein expression” value was “*** (an EC1.5× between >0.3 μM and ≦1 μM is indicated by three stars (***))”; the “maximum fold (Fold) increase” value was “**** (a fold increase between >1.5 and ≦1.65 is indicated by four stars (****))”.
The compound `Cc1cc(F)c2nc(-c3cc4ccc(N5C[C@H](C)NC[C@H]5C)nc4oc3=O)cn2c1` [Cpd 122, 7-[(2R,5S)-2,5-dimethylpiperazin-1-yl]-3-(8-fluoro-6-methylimidazo[1,2-a]pyridin-2-yl)-2H-pyrano[2,3-b]pyridin-2-one] displayed a melting point of 195 to 198 °C. Also, in series [1], the EC (1.5-fold) is not above 0.1 µM. Moreover, in the series on Smn protein, the “EC1.5x for Smn protein expression” value is on record as “**** (an EC1.5×≦0.3 μM is indicated by four stars (****))”; the “maximum fold (Fold) increase” value was “**** (a fold increase between >1.5 and ≦1.65 is indicated by four stars (****))”.
Compound `Cc1ccc2nc(-c3cc4ccc(N5C[C@@H](C)N[C@@H](C)C5)nc4oc3=O)cn2c1` [Cpd 67, 7-[(3R,5S)-3,5-dimethylpiperazin-1-yl]-3-(6-methylimidazo[1,2-a]pyridin-2-yl)-2H-pyrano[2,3-b]pyridin-2-one] gave a melting point of 248 to 251 °C. Further, the EC (1.5-fold) in series [1] is not above 0.1 µM. Moreover, in the series with Smn protein, the “EC1.5x for Smn protein expression” value was “*** (an EC1.5× between >0.3 μM and ≦1 μM is indicated by three stars (***))”; the “maximum fold (Fold) increase” value was “**** (a fold increase between >1.5 and ≦1.65 is indicated by four stars (****))”.
Take `Cc1cn2cc(-c3cc4ccc(N5CCCN(C)CC5)nc4oc3=O)nc2cn1` [Cpd 105, 7-(4-methyl-1,4-diazepan-1-yl)-3-(6-methylimidazo[1,2-a]pyrazin-2-yl)-2H-pyrano[2,3-b]pyridin-2-one]: the melting point lay within 290 to 293 °C. In series [1], the EC (1.5-fold) is not above 0.1 µM. Besides, in the series with Smn protein, the “EC1.5x for Smn protein expression” value was “** (an EC1.5× between >1 and ≦3 μM is indicated by two stars (**))”; the “maximum fold (Fold) increase” value was “*** (a fold increase between >1.35 and ≦1.5 is indicated by three stars (***))”.
Consider `Cc1cn2cc(-c3cc4ccc(N5C[C@H](C)N(C)C[C@H]5C)nc4oc3=O)nc2c(C)n1` [Cpd 123, 3-(6,8-dimethylimidazo[1,2-a]pyrazin-2-yl)-7-[(2R,5S)-2,4,5-trimethylpiperazin-1-yl]-2H-pyran[2,3-b]pyridin-2-one], for which the melting point was in the range of 234 to 236 °C. In addition, the EC (1.5-fold) in series [1] fell in the range of 0.1 to 0.3 µM. For the same compound, in the series with Smn protein, the “EC1.5x for Smn protein expression” value is “*** (an EC1.5× between >0.3 μM and ≦1 μM is indicated by three stars (***))”; the “maximum fold (Fold) increase” value was “**** (a fold increase between >1.5 and ≦1.65 is indicated by four stars (****))”.
`CCN1CCCN(c2ccc3cc(-c4cn5cc(C)ncc5n4)c(=O)oc3n2)CC1` [Cpd 142, 7-(4-ethyl-1,4-diazepan-1-yl)-3-(6-methylimidazo[1,2-a]pyrazin-2-yl)-2H-pyrano[2,3-b]pyridin-2-one]: the melting point fell in the range of 217 to 221 °C. Besides, in series [1], the EC (1.5-fold) was not above 0.1 µM. In the series with Smn protein, the “EC1.5x for Smn protein expression” value was “*** (an EC1.5× between >0.3 μM and ≦1 μM is indicated by three stars (***))”; the “maximum fold (Fold) increase” value is “**** (a fold increase between >1.5 and ≦1.65 is indicated by four stars (****))”.
As to `Cc1cn2cc(-c3cc4ccc(N5C[C@@H](C)N[C@@H](C)C5)nc4oc3=O)nc2cn1` [Cpd 101, 7-[(3R,5S)-3,5-dimethylpiperazin-1-yl]-3-(6-methylimidazo[1,2-a]pyrazin-2-yl)-2H-pyrano[2,3-b]pyridin-2-one], the melting point was 279 to 281 °C. In addition, the EC (1.5-fold) in series [1] is not above 0.1 µM. Also, in the series on Smn protein, the “EC1.5x for Smn protein expression” value was “*** (an EC1.5× between >0.3 μM and ≦1 μM is indicated by three stars (***))”; the “maximum fold (Fold) increase” value was “**** (a fold increase between >1.5 and ≦1.65 is indicated by four stars (****))”.
Turning to `CCN1CCN(c2ccc3cc(-c4cn5cc(C)nc(C)c5n4)c(=O)oc3n2)C[C@@H]1C` [Cpd 144, 3-(6,8-dimethylimidazo[1,2-a]pyrazin-2-yl)-7-[(3S)-4-ethyl-3-methylpiperazin-1-yl]-2H-pyrano[2,3-b]pyridin-2-one], the melting point fell in the range of 184 to 190 °C. In addition, the EC (1.5-fold) in series [1] was not above 0.1 µM. In addition, in the series with Smn protein, the “EC1.5x for Smn protein expression” value was “**** (an EC1.5×≦0.3 μM is indicated by four stars (****))”; the “maximum fold (Fold) increase” value is “**** (a fold increase between >1.5 and ≦1.65 is indicated by four stars (****))”.
The compound `O=c1oc2nc(N3CCN(CCO)CC3)ccc2cc1-c1nc2c(Cl)cccc2s1` [Cpd 10, 3-(4-chloro-1,3-benzothiazol-2-yl)-7-[4-(2-hydroxyethyl)piperazin-1-yl]-2H-pyrano[2,3-b]pyridin-2-one] gave a melting point of 258 to 262 °C. In series [1], the EC (1.5-fold) is 0.3 to 1 µM. In the series on Smn protein, the “EC1.5x for Smn protein expression” value is “*** (an EC1.5× between >0.3 μM and ≦1 μM is indicated by three stars (***))”; the “maximum fold (Fold) increase” value was “*** (a fold increase between >1.35 and ≦1.5 is indicated by three stars (***))”.
In the case of `C[C@@H]1CN(C)[C@@H](C)CN1c1ccc2cc(-c3nc4c(Cl)cccc4s3)c(=O)oc2n1` [Cpd 86, 3-(4-chloro-1,3-benzothiazol-2-yl)-7-[(2R,5S)-2,4,5-trimethylpiperazin-1-yl]-2H-pyrano[2,3-b]pyridin-2-one], the melting point was 233 to 234 °C. Besides, in series [1], the EC (1.5-fold) is 0.3 to 1 µM. Also, the “maximum fold (Fold) increase” value in the series on Smn protein is “** (a fold increase between >1.2 and ≦1.35 is indicated by two stars (**))”.
In turn, `O=c1oc2nc(N3CCN(CCO)CC3)ccc2cc1-c1nc2ccccc2s1` [Cpd 25, 3-(1,3-benzothiazol-2-yl)-7-[4-(2-hydroxyethyl)piperazin-1-yl]-2H-pyrano[2,3-b]pyridin-2-one] registered a melting point of 220 to 224 °C. Further, the EC (1.5-fold) in series [1] was in the range of 0.3 to 1 µM. Moreover, in the series with Smn protein, the “maximum fold (Fold) increase” value is “*** (a fold increase between >1.35 and ≦1.5 is indicated by three stars (***))”.
Regarding `O=c1oc2nc(N3CCNCC3)ccc2cc1-c1cn2cccc(Cl)c2n1` [Cpd 109, 3-(8-chloroimidazo[1,2-a]pyridin-2-yl)-7-(piperazin-1-yl)-2H-pyrano[2,3-b]pyridin-2-one], the melting point lay in the range of 233 to 237 °C. The EC (1.5-fold) in series [1] was not above 0.1 µM. In the series with Smn protein, the “EC1.5x for Smn protein expression” value was “**** (an EC1.5×≦0.3 μM is indicated by four stars (****))”; the “maximum fold (Fold) increase” value was “**** (a fold increase between >1.5 and ≦1.65 is indicated by four stars (****))”.

Broadly, the melting point is the temperature of the solid-liquid transition.

Source of the values: US9371336B2, “Compounds for treating spinal muscular atrophy” (PTC Therapeutics Inc., priority 2012, dated 2016).
